Key:
CD8+ T cell expansion = assay: Suppressiveness of T cells expanded with treated BMDMs (secondary CD8+ expansion); assay type: cell-based, mouse; conditions: BMDMs pretreated with compound
Description: FIG. 6A-6F. […] (A) DSHN-OMe has minimal effects on BMDM viability (N=4-6/group). (B) DSHN-OMe treated BMDMs reduce Treg expansion in a dose related manner, with an increased biological maximum compared to DSHN (data normalized to mean vehicle, which was set at 100%. Non-linear three parameter regression shown, N=4/point). […] Different letters denote P<0.05. […] The percentage of divided CD8+ T cells in the second round was quantified. (N=3-5/group, different letters indicating statistical significance, 1-way ANOVA followed by Tukey). […] Vehicle (DMSO) treated BMDMs are indicated on the right for comparison. (F) Cellular uptake of DSHN-OMe greatly exceeds that of DSHN though time. RAW264.7 cells were treated with 50 µM of vehicle (DMSO) or indicated compound for 4 h, 8 h or 24 h. Compound was washed off, cells were lysed and resulting DSHN and DSHN-OMe contents were assessed by LC-MS/MS. Note different scales on y-axes. For DSHN treated cells, no DSHN-OMe was detected (not shown). For DSHN-OMe treated cells, some DSHN was detected. ND signifies when compounds were not detected. (N=3/group. 4 h timepoint was run in an experiment independent of the 8 and 24 hr timepoints).
In order to better assess the potential cellular toxicity of DSHN-OMe, we treated BMDMs with increasing doses and measured their ability to reduce resazurin to resorufin (similar to the MTT viability assay).

E0771 tumors = assay: Orthotopic syngeneic E0771 mammary tumor growth; assay type: in vivo, mouse
Description: FIG. 3A-3F. DSHN, a tool small molecule agonist of NR0B2 reduces macrophage/dendritic cell induced Treg expansion and tumor growth in murine models. […] (B) Dendritic cells (left-CD11B^+; CD11C^+) and CD4^+ T cells (right) were isolated from MMTV-PyMT tumors by FACS, and treated with vehicle or DSHN for 3d. The resulting frequency of Treg (CD4^+; CD25^+; FoxP3^+) was quantified by flow cytometry (right graph), (N=3-5/group, t test). […] The percentage of divided CD8+ T cells in the second round was quantified. (D) DSHN increases efficacy of αPDL1 therapy on orthotopic E0771 tumors. An optimal number of E0771 cells were grafted into FoxP3-EGFP mice and allowed to grow until tumors reached 100 mm^3. Mice were euthanized on day 19 (waterfall plot, Fisher's exact test). (E) DSHN increases efficacy of αPDL1 therapy on orthotopic 4T1 tumors. 4T1 cells were orthotopically grafted into mice and allowed to establish for 5d prior to treatment start. Mice were euthanized on day 16 (waterfall plot, Fisher's exact test). (F) DSHN reduces metastatic outgrowth of 4T1 tumors and enhances efficacy of αPDL1 compared to placebo (p) (2-way ANOVA followed by Šidák's multiple comparison test for day 16). 4T1 cells were grafted intravenously, and lung metastatic lesions allowed to establish for 3d before treatment commenced. At the end of the study, lungs were removed and imaged ex vivo, quantified data indicated (N=10, 1-way ANOVA followed by Newman-Keuls multiple comparison test). Representative luciferase images shown to the right. * or different letters denote P<0.05 using indicated statistical test.
FIG. 7A-7I. DSHN-OMe reduces tumor and metastatic growth in murine models, in a myeloid cell-NR0B2 dependent manner. (A) E0771 cells were grafted into control mice (NR0B2^+/+; LysMCre^+) or mice where NR0B2 was knocked out in myeloid immune cells (NR0B2^fl/fl; LysMCre^+). […] (G) EMT6 metastatic lungs were assessed for Ki67 mRNA and (H) FOXP3 mRNA. (I) EMT6 metastatic lungs were assessed for CD8+ cytotoxic T cells (CD8+). […]

| SMILES | Suppressiveness of expanded T cells towards second set of naïve T cells (CD8+ expansion) (CD8+ T cell expansion) | Growth of established E0771 tumors, combined with αPDL1 (E0771 tumors; DSHN combined with αPDL1) | E0771 tumor growth, myeloid NR0B2 knockout (E0771 tumors; NR0B2fl/fl, LysMCre+ mice) | E0771 tumor growth (E0771 tumors; control NR0B2+/+, LysMCre+ mice, daily treatment from day 8) |
| --- | --- | --- | --- | --- |
| CCN(CC)S(=O)(=O)c1cccc2cc(C(=O)O)c(O)cc12 [DSHN, reference compound] | less suppressive | decreased growth | – | – |
| CCN(CC)S(=O)(=O)c1cccc2cc(C(=O)OC)c(O)cc12 [DSHN-OMe, Methyl 5-(N,N-diethylsulfamoyl)-3-hydroxy-2-naphthoate] | less suppressive | – | no significant impact | significantly reduced E0771 tumor growth |

— patent US20260257992A1, “AGONISTS OF SMALL HETERODIMER PARTNER FOR CANCER THERAPY” (THE BOARD OF TRUSTEES OF THE UNIVERSITY OF ILLINOIS, priority 2023, published 2026)
